This is an account of results in patent publication US4675428A, “Sulfonic acid ester derivatives useful as antilipemic agents” (Taiho Pharmaceutical Company, Limited, priority 1982, dated 1987).

Each structure is given as a SMILES string.

One data set concerns the target chymotripsin (Bos taurus, UniProt P00766). In words: Chymotripsin inhibiting activity (ATEE hydrolysis). Format: biochemical. The following applies: 1 × 10^-4 mole; pH 8.0, 37° C., ATEE substrate. The procedure: 2. Chymotripsin inhibiting activity
An enzyme solution (0.1 unit of chymotripsin) is added to a specified quantity of buffer solution containing 0.1 mole of trishydrochloric acid (pH 8.0). To the mixture is further added a 50% ethanol solution of the compound of the invention, and the resulting mixture is reacted at 37° C. for 20 minutes.
On completion of the reaction, 10 micromoles of N-acetyl-L-thyrosine (ATEE) serving as a substrate is added to the mixture, and the resulting mixture is reacted at 37° C. for 30 minutes. After the completion of the reaction, the amount of remaining ATEE is determined by the same hydroxamic acid method as used in the method of determining the esterase inhibiting activity. The percent chymotripsin inhibition is given by
Percent inhibition=(A-B/A)×100
wherein A is the amount of hydrolyzed esters in the reaction system not containing the compound of the invention, and B is the amount of hydrolyzed esters in the reaction system containing the present compound.

Data set [1] has as its target esterase solution prepared from a purified microsome fraction of the liver of a rat. In words: Esterase inhibiting activity (hydrolysis of methyl butyrate). It counts as biochemical. The note with it: pH 8.0, 37° C., 60 min. The procedure: 1. Esterase inhibiting activity
A 10 micromole quantity of methyl butyrate in a 50% ethanol solution is added as a substrate to a specified amount of buffer solution containing 0.1 mole of trishydrochloric acid (pH 8.0). To the mixture is further added a 50% ethanol solution of the compound of the invention, immediately followed by addition of an esterase solution prepared from a purified microsome fraction of the liver of a rat (adjusted to hydrolyze 9 micromoles of methyl butyrate at 37° C. in one hour) as an enzyme solution. The mixture is reacted at 37° C. for 60 minutes.
After the reaction, alkaline hydroxylamine is added to the mixture to form a hydroxamic acid derivative of methyl butyrate, and a ferric salt is added to the derivative. The resulting red color is colorimetrically determined (at a wavelength of 540 nm) to determine the amount of remaining methyl butyrate. The esterase inhibiting ratios of the present compound at (at least three) different concentrations are plotted as ordinate, and the logarithms of the concentrations as abscissa to obtain a line, which gives the 50% inhibition concentration (IC50).

The next data set has as its system plasma triglycerides. In words: Antilipemic effect (plasma triglycerides after oral olive oil). It counts as in vivo, male Wistar rats. The note with it: Wistar rats, oral in olive oil (100 mg in 5 ml, 5 ml/kg), plasma 2 h after dosing. The procedure: Seven-week-old male Wistar rats weighing 200 to 220 g are used, 5 rats in each group.
The compound of the invention (100 mg) is dissolved in 5 ml of olive oil. The olive oil containing the compound is orally given to the rat with a probe at a dose of 5 ml/kg. Two hours thereafter, 6 ml of whole blood is withdrawn from the descending aorta of the rat under ether anesthesia with a syringe containing heparin. The blood is centrifuged at 5° C. and 3000 r.p.m. to obtain the plasma.
The plasma collected is used for determining the triglycerides content, using a triglycerides measuring kit (trade mark "Triglycerides-B Test Wako," product of Wako Junyaku Co., Ltd., Japan). Olive oil containing no compound is similarly given to a control group, while no treatment is conducted for a normal group. The triglycerides content in the plasma is also determined for these groups in the same manner as is the case with the test groups.
The percent hyperlipidemia inhibition achieved by the present compound is given by
Percent inhibitaion=(A-C/A-B)×100
in which A is the triglycerides content of the control group, B is the triglycerides content of the normal group, and C is the triglycerides content of the group to which the present compound is given.

Data set [2] can be described thus: Heat-stability on storage at 40° C. (HPLC content of undecomposed compound). It counts as physicochemical. The note with it: for remaining at 288 h / remaining at 360 h: solid storage; for remaining at 288 h: 12th day; for remaining at 360 h: 15th day; for Content (%) Start: start (initial content). The procedure: The following compounds (200 mg each) were placed in transparent sample bottles, and left to stand at a constant temperature of 40° C. for 15 days. Thereafter, they were checked for the heat-stability by determining the change of content of the compounds which remained not decomposed as of the 12th and 15th day. The content was measured by high performance liquid chromatography using a 60:40 mixture of acetonitrile and water as an eluent, and the percentages of the content of the undecomposed compound were calculated based on the initial content.

Take `CC[C@H]1CC[C@@](CC)(C(=O)COS(=O)(=O)c2ccccc2)CC1` [Compound 1]: the “Chymotripsin inhibition (%)” value on chymotripsin is recorded as 12%. For the same compound, half-maximal inhibition in data set [1] (IC50) required 35 µM.

`CC[C@H]1CC[C@](CC)(C(=O)COS(=O)(=O)c2ccccc2)CC1` [Compound 3]: at chymotripsin, the “Chymotripsin inhibition (%)” value came out at 25%. Moreover, in the data set with plasma triglycerides, the “Antilipemic TG inhibition (%)” value came to 47.1%. The IC50 (usually the concentration needed to halve the response being measured) in data set [1] was determined as 0.34 µM.

Turning to `CC(C)[C@H]1CC[C@@](C)(C(=O)COS(=O)(=O)c2ccccc2)CC1` [Compound 5], at chymotripsin, the “Chymotripsin inhibition (%)” value is 14%. In the data set with plasma triglycerides, the “Antilipemic TG inhibition (%)” value came to 49.0%. Besides, the IC50 in data set [1] is 33 µM.

For the compound `CC(C)[C@H]1CC[C@](C)(C(=O)COS(=O)(=O)c2ccccc2)CC1` [Compound 7], the “Chymotripsin inhibition (%)” value at chymotripsin is recorded as 26%. In addition, the “Antilipemic TG inhibition (%)” value in the data set on plasma triglycerides is reported as 72.0%. The same compound displayed an IC50 in data set [1] of 0.016 µM.

In the case of `Cc1ccc(S(=O)(=O)OCC(=O)C2(C)CCC(C(C)C)CC2)cc1` (stereo not shown) [Compound 8], at chymotripsin, the “Chymotripsin inhibition (%)” value is given as 35%. Further, half-maximal inhibition in data set [1] (IC50) was put at 0.56 µM.

For `CC(C)C[C@H]1CC[C@](C)(C(=O)COS(=O)(=O)c2ccccc2)CC1` [Compound 11], the “Chymotripsin inhibition (%)” value at chymotripsin came out at 15%. The “Antilipemic TG inhibition (%)” value with plasma triglycerides came to 70.5%. The same compound yielded an IC50 in data set [1] of 2.2 µM.

As for `CC1(C)CCC(C(=O)COS(=O)(=O)c2ccccc2)CC1` [Compound 16, 1-(benzenesulfonyloxy)-2-(4,4-dimethylcyclohexyl)-2-ethanone], the “Chymotripsin inhibition (%)” value on chymotripsin is 71%. Also, the “Antilipemic TG inhibition (%)” value in the data set with plasma triglycerides was found to be 77.5%. In data set [1], the IC50 is 0.0058 µM.

For the compound `Cc1cc(C)c(S(=O)(=O)OCC(=O)C2CCC(C)(C)CC2)c(C)c1` [Compound 17], in data set [1], the 50% inhibitory concentration (IC50) was found to be 0.002 µM.

For the compound `COc1ccc(S(=O)(=O)OCC(=O)C2CCC(C)(C)CC2)cc1` [Compound 18], in data set [1], the midpoint of inhibition, the IC50, lay at 2.5 µM.

Regarding `CCCC1(C)CCC(C(=O)COS(=O)(=O)c2ccccc2)CC1` (stereo not shown) [Compound 19], the “Chymotripsin inhibition (%)” value on chymotripsin is 34%. Moreover, the “Antilipemic TG inhibition (%)” value in the data set on plasma triglycerides amounted to 95.4%. In data set [1], the IC50 amounted to 0.0042 µM.

As for `O=C(COS(=O)(=O)c1ccccc1)C1CCC2(CCCC2)CC1` [Compound 22], the “Chymotripsin inhibition (%)” value at chymotripsin turned out to be 41%. In addition, in the data set with plasma triglycerides, the “Antilipemic TG inhibition (%)” value is listed as 84.2%. In addition, the half-maximal inhibitory concentration (IC50) in data set [1] was 0.022 µM.

Turning to `Cc1ccc(S(=O)(=O)OCC(=O)C2CCC3(CCCC3)CC2)cc1` [Compound 23], the 50% inhibitory concentration (IC50) in data set [1] was determined as 3 µM.

As to `O=C(COS(=O)(=O)c1ccccc1)C1CCC2(CCCCC2)CC1` [Compound 24], the “Chymotripsin inhibition (%)” value at chymotripsin came to 61%. For the same compound, the “Antilipemic TG inhibition (%)” value in the data set with plasma triglycerides turned out to be 93.5%. This compound had a half-inhibitory concentration (IC50) in data set [1] of 0.0054 µM.

With `CC(C)[C@H]1CC[C@H](C(=O)COS(=O)(=O)c2ccccc2)CC1` [Compound C-1], in data set [2], the share remaining – broadly, what is left of the initial amount, in per cent – at 288 h is 92%; the fraction remaining at 360 h was determined as 14%; the “Content (%) Start” value came to 100%.

Turning to `Cc1ccc(S(=O)(=O)OCC(=O)[C@H]2CC[C@H](C(C)(C)C)CC2)cc1` [Compound C-2], in data set [2], the fraction remaining at 288 h was found to be 93%, the share remaining at 360 h came to 16% and the “Content (%) Start” value is recorded as 100%.

`Cc1cc(C)c(S(=O)(=O)OCC(=O)C2CCC(C(C)C)CC2)c(C)c1` (stereo not shown) [Compound C-3]: in data set [2], the fraction remaining at 288 h is 95%, the amount remaining at 360 h came out at 40% and the “Content (%) Start” value was 100%.

Take `CCOc1ccc(S(=O)(=O)OCC(=O)C2CCC(CC)CC2)cc1` (stereo not shown) [Compound C-4]: in data set [2], the amount remaining at 288 h was 91%, the share remaining at 360 h worked out at 15% and the “Content (%) Start” value came out at 100%.

Take `O=C(COS(=O)(=O)c1ccccc1)C1CCCCC1` [Compound C-5]: in data set [2], the amount remaining at 288 h was found to be 85%, the amount remaining at 360 h was found to be 15% and the “Content (%) Start” value is 100%.

`CCOc1ccc(S(=O)(=O)OCC(=O)C2CCCCC2)cc1` [Compound C-6]: in data set [2], the share remaining at 288 h is 80%, the amount remaining at 360 h was found to be 14% and the “Content (%) Start” value is listed as 100%.

As for `Cc1cc(C)c(S(=O)(=O)OCC(=O)C2CCCCC2)c(C)c1` [Compound C-7], in data set [2], the amount remaining at 288 h amounted to 95%, the amount remaining at 360 h amounted to 20% and the “Content (%) Start” value is 100%.

Consider `O=C(CCC1CCCCC1)COS(=O)(=O)c1ccccc1` [Compound C-8], for which, in data set [2], the fraction remaining at 288 h came out at 72%, the amount remaining at 360 h was 19% and the “Content (%) Start” value was found to be 100%.

For `Cc1cc(C)c(S(=O)(=O)OCC(=O)C2(C)CCC(C(C)C)CC2)c(C)c1` (stereo not shown) [Compound T-6], in data set [2], the fraction remaining at 288 h was found to be 100%, the share remaining at 360 h was 100% and the “Content (%) Start” value was found to be 100%.

For the compound `CC(C)[C@H]1CC[C@](C)(C(=O)COS(=O)(=O)c2ccccc2)CC1` [Compound T-7], in data set [2], the fraction remaining at 288 h was 100%, the share remaining at 360 h is 100% and the “Content (%) Start” value is given as 100%.

In the case of `Cc1ccc(S(=O)(=O)OCC(=O)C2(C)CCC(C(C)C)CC2)cc1` (stereo not shown) [Compound T-8], in data set [2], the amount remaining at 288 h came out at 100%, the amount remaining at 360 h was found to be 100% and the “Content (%) Start” value is given as 100%.

Regarding `COc1ccc(S(=O)(=O)OCC(=O)C2(C)CCC(CC(C)C)CC2)cc1` (stereo not shown) [Compound T-13], in data set [2], the fraction remaining at 288 h stood at 100%, the fraction remaining at 360 h amounted to 100% and the “Content (%) Start” value came out at 100%.
